Reference: patent US20230210825A1, “METHODS AND COMPOSITIONS FOR TREATING SUBJECTS WITH METABOLIC DISORDERS AND CORONAVIRUS INFECTIONS” (CIRIUS THERAPEUTICS, INC., priority 2020, published 2023)

Test system: mice fed a diet enriched in trans fat, cholesterol and fructose
Assay: Trans fat, cholesterol and fructose diet for 19 weeks: hepatic damage and fibrosis
Format: in vivo
Method: Mice were fed a diet enriched in trans fat, cholesterol and fructose for 19 weeks to induce hepatic damage and metabolic dysfunction, which was assessed by histological changes in the NAS and fibrosis, measured by trichrome staining for collagen. MSDC-0602K (30 mg/kg) was given at either four weeks into the treatment or 16 weeks into the treatment as compared to the vehicle treated mice who were also on the modified diet. The results of mice who were kept on the normal diet are included for comparison. […] The signals for activation of the stellate cells and fibrosis are attenuated by treatment of the mice or isolated hepatocytes with MSDC-0602K.

Structure (SMILES): COc1cccc(C(=O)COc2ccc(CC3SC(=O)NC3=O)cc2)c1 (centres unmarked) [MSDC-0602K]
- signals for activation of the stellate cells and fibrosis (30 mg/kg from week 4 or week 16 of a 19-week diet, mice or isolated hepatocytes): attenuated
- high fat, high cholesterol, high sugar diet-induced metabolic dysfunction (multiple animal models): protect against
